Where only a bound is given, the exact number is not on record here.

The text below walks through data of patent US20220041616A1, “SPIRO COMPOUND AND MEDICAL USES THEREOF” (The National Institutes of Pharmaceutical R&D Co., Ltd., priority 2018, published 2022).

One test has as its system HepG2 cells. Put plainly: In vitro inhibition of fatty acid synthesis in HepG2 cells ([14C]-acetate incorporation). In kind it is cell-based, human. Particulars: 1 h compound, then 5 h [2-14C]-acetic acid. The procedure: Human liver tumor cells (HepG2 cells) with strong fatty acid synthesis ability were selected. The sample to be tested was added and incubated for 1 hour. Isotope-labeled [^14C]-sodium acetate was added to the cell culture medium and incubated for 5 hours. Then the cells were lysed, and the fatty acid components in the cell were extracted and separated. The relative content of the isotope integrated into the fatty acid was analyzed, so as to detect the inhibitory effect of the compound on fatty acid synthesis in HepG2 cells at different concentrations, and the IC50 value was calculated.
a. HepG2 cells were purchased from the American type culture collection (ATCC) resource bank. Cells were cultured in DMEM (GIBCO) containing 10% fetal bovine serum (GIBCO), penicillin (100 units/mL) and streptomycin (100 μg/mL) (GIBCO), and then incubated in a 37° C. incubator containing 5% carbon dioxide, and passaged once every 2 to 3 days.
b. On the first day, HepG2 cells were inoculated in a 24-well cell culture plate at 2×10^5 per well, and were incubated in a 37° C. incubator containing 5% carbon dioxide.
c. On the fourth day, the medium was changed to that containing the compound. The initial concentration of the compound was 3 μM or 0.3 μM, 3-fold dilution, 8 concentration gradients, and the final concentration of DMSO was 0.5% (v/v). The plate was incubated in a 37° C. incubator containing 5% carbon dioxide for 1 hour. GS-0976 was positive compound control; the reaction system with no compound but DMSO at a final concentration of 0.5% was negative control.
d. 1 μCi [2-^14C]-acetic acid was added to each well, and incubated for 5 hours in a 37° C. incubator containing 5% carbon dioxide.
e. The medium was first transferred to 15 mL centrifuge tubes. 0.5 mL of 0.1 M NaOH was added to each well of cells, and the lysed cell suspension was added to the corresponding 15 mL centrifuge tubes. 1 mL of ethanol and 0.17 mL of 50% KOH were added to each tube, and incubated in a water bath at 90° C. for 1 hour.
f. The sample were taken out and cooled to room temperature, then 5 mL petroleum ether was added to each tube, inverted several times, and centrifuged at 1000 rpm for 5 min. The upper organic phase was discarded and the aqueous phase was kept for fatty acid extraction. 1 mL of concentrated hydrochloric acid (its pH was ensured to be below 1) was added to each tube.
g. 5 mL petroleum ether was added to each tube, invert several times and centrifuged at 1000 rpm for 5 min. 4 mL petroleum ether layer was transferred to a new glass tube (18×180 mm). This step was repeated once.
h. The extracts were collected and placed in a water bath at 64° C. to evaporate for 30 min. Fatty acids were dissolved with 400 μL chloroform/n-hexane (1:1).
i. 50 μL sample were placed in iso-plate (Perkinelmer), 200 μL ULTIMA GOLD (Perkinelmer) was added to each well and incubated for 10 min at room temperature.
j. MicroBeta (Perkinelmer) was used to record the CPM scintillation signal.
The average value of the positive and negative control well and the standard deviation were calculated. IC50 was fitted by using XLFit 5.3.1.3 (2006-2011 ID Business Solutions Limited) with 4-Parameter Logistic Model or Sigmoidal Dose-Response Model:
Y=(Bottom+((Top−Bottom)/(1+((Log IC50/X)^Hillslope)))),
wherein X is the logarithm of the compound concentration, Y is CPM (count per minute); Top and Bottom are the Y values at the highest and lowest plateau of the curve; Hillslope is the Hill constant.
One may read the IC50 as the concentration at which inhibition is half-maximal. A higher IC50 goes with lower potency. For `COc1ccccc1C(CN1C(=O)C2(CCC(C(=O)O)C2)C(=O)c2c1sc(-c1ncco1)c2C)OC1CCOCC1` (mixture of isomers) [Compound 5y, 7′-(2-(2-methoxyphenyl)-2-((tetrahydro-2H-pyran-4-yl)oxy)ethyl)-3′-methyl-2′-(oxazol-2-yl)-4′,6′-dioxo-6′,7′-dihydro-4′H-spiro[cyclopentane-1,5′-thieno[2,3-b]pyridine]-3-carboxylic Acid], the IC50 was less than 50 nM.

Staying with this test, now noted: Homo sapiens, HepG2, 1 h compound, then 5 h [2-14C]-acetic acid.
Regarding `COc1ccccc1C(CN1C(=O)C2(CCC(C(=O)O)C2)C(=O)c2c1sc(-c1ncco1)c2C)OC1CCOCC1` (single isomer, unassigned) [Compound 5b, 7′-(2-(2-methoxyphenyl)-2-((tetrahydro-2H-pyran-4-yl)oxy)ethyl)-3′-methyl-2′-(oxazol-2-yl)-4′,6′-dioxo-6′,7′-dihydro-4′H-spiro[cyclopentane-1,5′-thieno[2,3-b]pyridine]-3-carboxylic Acid], the half-inhibitory concentration (IC50) is less than 50 nM.

Compound `COc1ccccc1C(CN1C(=O)C2(CCC(C(=O)O)C2)C(=O)c2c1sc(-c1ncco1)c2C)OC1CCOCC1` (mixture of isomers) [Compound 5x, 7′-(2-(2-methoxyphenyl)-2-((tetrahydro-2H-pyran-4-yl)oxy)ethyl)-3′-methyl-2′-(oxazol-2-yl)-4′,6′-dioxo-6′,7′-dihydro-4′H-spiro[cyclopentane-1,5′-thieno[2,3-b]pyridine]-3-carboxylic Acid] returned a concentration for half-maximal inhibition (IC50) of 50 to 500 nM.

On to `COc1ccccc1[C@H](CN1c2sc(-c3ncco3)c(C)c2C(=O)[C@]2(C[C@H](C(=O)O)C2)C1=O)OC1CCOCC1` [Compound 8c, 7′-(2-(2-methoxyphenyl)-2-((tetrahydro-2H-pyran-4-yl)oxy)ethyl)-3′-methyl-2′-(oxazol-2-yl)-4′,6′-dioxo-6′,7′-dihydro-4′H-spiro[cyclobutane-1,5′-thieno[2,3-b]pyridine]-3-carboxylic Acid], for which the IC50 is less than 50 nM.

Compound `COc1ccccc1C(CN1C(=O)C2(CC(C(=O)O)C2)C(=O)c2c1sc(-c1ncco1)c2C)OC1CCOCC1` (single isomer, unassigned) [Compound 8d, 7′-(2-(2-methoxyphenyl)-2-((tetrahydro-2H-pyran-4-yl)oxy)ethyl)-3′-methyl-2′-(oxazol-2-yl)-4′,6′-dioxo-6′,7′-dihydro-4′H-spiro[cyclobutane-1,5′-thieno[2,3-b]pyridine]-3-carboxylic Acid] came in with a half-maximal inhibitory concentration (IC50) of less than 50 nM.

`COc1ccccc1C(CN1C(=O)C2(CC(C(=O)O)C2)C(=O)c2c1sc(-c1ncco1)c2C)OC1CCOCC1` (mixture of isomers) [Compound 8, 7′-(2-(2-methoxyphenyl)-2-((tetrahydro-2H-pyran-4-yl)oxy)ethyl)-3′-methyl-2′-(oxazol-2-yl)-4′,6′-dioxo-6′,7′-dihydro-4′H-spiro[cyclobutane-1,5′-thieno[2,3-b]pyridine]-3-carboxylic Acid] returned an IC50 of less than 50 nM.
